# In ChEMBL document CHEMBL2073983, “Characterization of the mouse bile salt export pump overexpressed in the baculovirus system” (Hepatology, 2001):
# B1: Bile salt export pump (Mus musculus) (protein)
# chain: MSDSVILRSVKKFGEENHAFESDGFHNNDKKSRLQDKKKGEGARVGFFELFRFSSSKDNWLMFMGSVCALLHGMAQPGMIIVFGILTDIFVEYDIERQELSIPEKVCMNNTIVWINSSFNQNMTNGTSCGLVDINSEVIKFSGIYAGVGVAVLILGYFQIRLWVITGARQIRKMRKFYFRRIMRMEIGWFDCTSVGELNSRFSDDINKIDEAIADQMALFLQRLSTALSGLLLGFYRGWKLTLVILAVSPLIGIGAAVIGLSVAKFTELELKAYAKAGSIADEVLSSIRTVAAFGGENKEVERYEKNLMFAQRWGIWKGMVMGFFTGYMWCLIFFCYALAFWYGSRLVLDEGEYTPGTLIQIFLCVIIAAMNIGNASSCLEIFSTGCSAASSIFQTIDRQPVMDCMSGDGYKLDRIKGEIEFHNVTFHYPSRPEVKILNNLSMVIKPGETTAFVGSSGAGKSTALQLIQRFYDPCEGMVTLDGHDIRSLNIRWLRDQIGIVEQEPVLFSTTIAENIRLGREEATMEDIVQAAKDANAYNFIMALPQQFDTLVGEGGGQMSGGQKQRVAIARALIRKPKILLLDMATSALDNESEAKVQGALNKIQHGHTIISVAHRLSTVRSADVIIGFEHGTAVERGTHEELLERKGVYFMLVTLQSQEDNTHKETGIKGKDTTEGDTPERTFSRGSYQDSLRASIRQRSKSQLSHLSHEPPLAIGDHKSSYEDRKDNDVLVEEVEPAPVRRILKYNISEWPYILVGALCAAINGAVTPIYSLLFSQILKTFSLVDKEQQRSEIYSMCLFFVILGCVSLFTQFLQGYNFAKSGELLTKRLRKFGFKAMLRQDIGWFDDLKNNPGVLTTRLATDASQVQGATGSQVGMMVNSFTNIFVAVLIAFLFNWKLSLVISVFFPFLALSGAVQTKMLTGFASQDKEILEKAGQITNEALSNIRTVAGIGVEGRFIKAFEVELEKSYKTAIRKANVYGLCYAFSQGISFLANSAAYRYGGYLIVYEDLNFSYVFRVVSSIAMSATAVGRTFSYTPSYAKAKISAARFFQLLDRKPPIDVYSGAGEKWDNFQGKIDFIDCKFTYPSRPDIQVLNGLSVSVDPGQTLAFVGSSGCGKSTSIQLLERFYDPDQGTVMIDGHDSKKVNVQFLRSNIGIVSQEPVLFDCSIMDNIKYGDNTKEISVERAIAAAKQAQLHDFVMSLPEKYETNVGIQGSQLSRGEKQRIAIARAIVRDPKILLLDEATSALDTESEKTVQLALDKAREGRTCIVIAHRLSTIQNSDIIAVMSQGVVIEKGTHKKLMDQKGAYYKLVITGAPIS
# Tests used:
# Format in all cases: functional, cell membranes, Membrane vesicle
# [1] = molecular target: T1, Bile salt export pump (Bsep) (Mus musculus, UniProt Q9QY30); experiment: TP_TRANSPORTER: inhibition of Taurochenodeoxycholate-stimulated ATPase activity (Rifamycin SV: 100 uM) in membrane vesicles from Bsep-expressing Sf9 cells; design: scale not given: the % may be the effect or the level left; details: probe Taurochenodeoxycholate, read-out: Activity
# T1 sequence (Q9QY30 whole entry): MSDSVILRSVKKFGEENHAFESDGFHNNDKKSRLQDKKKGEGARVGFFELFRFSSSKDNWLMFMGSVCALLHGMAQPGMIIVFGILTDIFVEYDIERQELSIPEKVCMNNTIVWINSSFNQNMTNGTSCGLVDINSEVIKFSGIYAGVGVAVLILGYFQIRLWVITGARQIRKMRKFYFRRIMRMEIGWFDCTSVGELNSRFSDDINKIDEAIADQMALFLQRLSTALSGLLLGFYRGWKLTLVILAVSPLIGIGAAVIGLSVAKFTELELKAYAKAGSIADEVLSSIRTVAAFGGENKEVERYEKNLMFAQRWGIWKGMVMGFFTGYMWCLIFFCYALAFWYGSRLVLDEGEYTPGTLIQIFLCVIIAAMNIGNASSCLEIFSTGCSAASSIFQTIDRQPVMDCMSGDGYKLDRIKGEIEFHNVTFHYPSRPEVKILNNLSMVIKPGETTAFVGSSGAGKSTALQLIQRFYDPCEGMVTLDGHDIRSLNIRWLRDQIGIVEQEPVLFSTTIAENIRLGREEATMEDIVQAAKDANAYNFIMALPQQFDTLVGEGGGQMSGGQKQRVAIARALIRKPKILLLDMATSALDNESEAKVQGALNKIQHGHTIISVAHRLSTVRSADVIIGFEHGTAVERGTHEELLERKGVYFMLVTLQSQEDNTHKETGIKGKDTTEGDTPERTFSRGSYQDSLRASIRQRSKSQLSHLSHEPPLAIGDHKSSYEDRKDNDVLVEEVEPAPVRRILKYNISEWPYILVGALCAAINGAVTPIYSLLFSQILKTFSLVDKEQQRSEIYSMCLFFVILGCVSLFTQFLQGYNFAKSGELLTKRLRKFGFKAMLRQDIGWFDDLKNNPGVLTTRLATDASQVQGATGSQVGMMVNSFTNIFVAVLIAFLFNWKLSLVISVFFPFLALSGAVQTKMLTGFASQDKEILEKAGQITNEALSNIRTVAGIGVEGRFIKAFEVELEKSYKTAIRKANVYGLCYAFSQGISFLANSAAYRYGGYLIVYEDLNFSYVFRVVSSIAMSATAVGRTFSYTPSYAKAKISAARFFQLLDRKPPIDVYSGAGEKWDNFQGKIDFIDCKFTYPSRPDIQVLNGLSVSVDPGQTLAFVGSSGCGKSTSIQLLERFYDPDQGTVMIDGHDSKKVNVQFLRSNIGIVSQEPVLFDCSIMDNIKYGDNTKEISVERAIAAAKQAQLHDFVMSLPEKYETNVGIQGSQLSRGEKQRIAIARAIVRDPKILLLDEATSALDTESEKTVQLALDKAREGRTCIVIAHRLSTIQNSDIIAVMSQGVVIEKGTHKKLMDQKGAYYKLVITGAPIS
# [2] = molecular target: T1, Bile salt export pump (Bsep); experiment: TP_TRANSPORTER: inhibition of Taurochenodeoxycholate-stimulated ATPase activity (Glibenclamide: 60 uM) in membrane vesicles from Bsep-expressing Sf9 cells; design: scale not given: the % may be the effect or the level left; details: probe Taurochenodeoxycholate, read-out: Activity
# [3] = substrate: C[C@H](CCC(=O)NCCS(=O)(=O)O)[C@H]1CC[C@H]2[C@@H]3[C@H](O)C[C@@H]4C[C@H](O)CC[C@]4(C)[C@H]3CC[C@]12C; experiment: TP_TRANSPORTER: uptake in membrane vesicles isolated from Bsep-expressing Sf9 cells
# [4] = substrate: C[C@H](CCC(=O)NCC(=O)O)[C@H]1CC[C@H]2[C@@H]3[C@H](O)C[C@@H]4C[C@H](O)CC[C@]4(C)[C@H]3C[C@H](O)[C@]12C; experiment: TP_TRANSPORTER: uptake in membrane vesicles from Bsep-expressing Sf9 cells
molecule,measurement,setting,value
CO[C@H]1/C=C/O[C@@]2(C)Oc3c(C)c(O)c4c(O)c(cc(O)c4c3C2=O)NC(=O)/C(C)=C\C=C\[C@H](C)[C@H](O)[C@@H](C)[C@@H](O)[C@@H](C)[C@H](OC(C)=O)[C@@H]1C [RIFAMYCIN],activity at 100 µM,[1],29.8%
COc1ccc(Cl)cc1C(=O)NCCc1ccc(S(=O)(=O)NC(=O)NC2CCCCC2)cc1 [GLYBURIDE],activity at 60 µM,[2],47.2%
B1,Km,[3],5.7 µM
same,Km,[4],19.5 µM
